Data as given in ChEMBL document CHEMBL3580598, “Limonoids and Triterpenoids from Dysoxylum mollissimum var. glaberrimum” (J Nat Prod, 2015).

How the values were obtained:
[1] = test system: A549; assay: Cytotoxicity against human A549 cells assessed as inhibition of cell growth at 10 uM by SRB protein staining method; assay type: functional; settings: read-out: GI
[2] = test system: HL-60; assay: Cytotoxicity against human HL60 cells assessed as inhibition of cell growth at 10 uM by MTT method; assay type: functional; settings: read-out: GI
[3] = test system: P388; assay: Cytotoxicity against mouse P388 cells assessed as inhibition of cell growth at 10 uM by MTT method; assay type: functional; settings: read-out: GI
[4] = test system: A549; assay: Cytotoxicity against human A549 cells by SRB protein staining method; assay type: functional, cell-based
[5] = test system: P388; assay: Cytotoxicity against mouse P388 cells by MTT method; assay type: functional, cell-based
[6] = test system: HL-60; assay: Cytotoxicity against human HL60 cells by MTT method; assay type: functional, cell-based

| Compound | inhibition of growth at 10 µM [1] [%] | inhibition of growth at 10 µM [2] [%] | inhibition of growth at 10 µM [3] [%] | IC50 [4] [nM] | IC50 [5] [nM] | IC50 [6] [nM] |
| --- | --- | --- | --- | --- | --- | --- |
| C[C@@H]([C@@H]1O[C@H]1[C@H](O)C(C)(C)O)[C@@H]1CC[C@]2(C)C3=CC[C@H]4C(C)(C)C(=O)CC[C@]4(C)[C@H]3CC[C@@]12C | < 50 | < 50 | – | – | – | – |
| COC(=O)C[C@H](OC(C)=O)[C@]1(C)[C@H]2CC[C@@]3(C)[C@H](c4ccoc4)OC(=O)[C@H]4O[C@]43[C@]2(C)[C@H](OC(C)=O)[C@H](OC(C)=O)[C@H]1C(C)(C)O | < 50 | < 50 | < 50 | – | – | – |
| CC(=O)O[C@@H]1C[C@H]2C(C)(C)[C@H](O)CC[C@]2(C)[C@H]2CC[C@]3(C)C(=CC[C@H]3[C@@]3(O)COC(=O)C3)[C@@]21C | < 50 | < 50 | < 50 | – | – | – |
| C=C1[C@@H]([C@@]2(C)[C@@H](OC(C)=O)CC(=O)O[C@@](C)(COC(C)=O)[C@@H]2CC(=O)OC)[C@@H](C(=O)O)[C@H](OC(=O)C(O)C(C)C)[C@@]2(C)[C@H](c3ccoc3)C(OC(=O)C(C)CC)[C@H]3O[C@]132 (some centres undefined) | – | – | – | 2100 | – | – |
| CC1(C)C(=O)CC[C@]2(C)[C@H]3CC[C@]4(C)C(=CC[C@H]4C4=CC(=O)OC4)[C@]3(C)[C@H](OC(=O)c3ccccc3)C[C@@H]12 | < 50 | < 50 | < 50 | – | – | – |
| CC(=O)O[C@H]1CC(=O)O[C@@]2(C)CO[C@H]3[C@@H](OC(=O)C(O)C(C)C)[C@]4(C)[C@H](CC[C@@]5(C)[C@H](c6ccoc6)OC(=O)[C@H]6O[C@@]645)[C@]1(C)[C@@H]32 (some centres undefined) | < 50 | < 50 | < 50 | – | – | – |
| COc1cccc2c1C(=O)c1c(O)c3c(c(O)c1C2=O)C[C@@](O)(C(=O)CO)C[C@@H]3O[C@H]1C[C@H](N)[C@H](O)[C@H](C)O1 [DOXORUBICIN] | – | – | – | – | 200 | 58 |
| C=C1[C@@H]([C@@]2(C)C=CC(=O)O[C@@](C)(COC(C)=O)[C@@H]2CC(=O)OC)[C@@H](OC=O)[C@H](OC(=O)C(O)C(C)C)[C@@]2(C)[C@H](c3ccoc3)[C@@H](OC(=O)C(OC(C)=O)C(C)C)[C@H]3O[C@]132 (some centres undefined) | < 50 | < 50 | < 50 | – | – | – |
| CC(=O)O[C@H]1CC(=O)O[C@@]2(C)CO[C@H]3[C@@H](O)[C@]4(C)[C@H](CC[C@@]5(C)[C@H](c6ccoc6)OC(=O)[C@H]6O[C@@]645)[C@]1(C)[C@@H]32 | < 50 | < 50 | < 50 | – | – | – |
| C[C@@H]([C@@H]1O[C@H]1[C@@H](O)C(C)(C)O)[C@@H]1CC[C@]2(C)C3=CC[C@H]4C(C)(C)C(=O)CC[C@]4(C)[C@H]3CC[C@@]12C | < 50 | < 50 | < 50 | – | – | – |
| C=C(C)[C@@H]1C[C@@H](O)[C@@]2(C)C3=C[C@H](OC(C)=O)[C@@H](c4ccoc4)[C@]3(C)CC[C@@H]2[C@@]1(C)[C@@H](O)CC(=O)OC | < 50 | < 50 | < 50 | – | – | – |
